Assay results from the NIST ThermoML archive (doi:10.1016/j.jct.2004.12.004).

Test: mn = molality of the nth substance listed, in mol/kg
Conditions: 350 kPa, Liquid, Extra sensitive DSC

OC[C@H]1O[C@@](CO)(O[C@H]2O[C@H](CO)[C@@H](O)[C@H](O)[C@H]2O)[C@@H](O)[C@@H]1O [D-sucrose] + O
apparent molar heat capacity [J/K/mol]
Conditions | 323.15 K | 328.15 K | 333.15 K | 338.15 K | 343.15 K | 348.15 K | 353.15 K | 358.15 K | 363.15 K
m1 = 0.01461 | 722.3 | 735.7 | 746.9 | 756.6 | 765.9 | 774.3 | 781.7 | 791 | 797.3
m1 = 0.03048 | 722.4 | 735.3 | 746.6 | 757.3 | 766.2 | 775.2 | 783.6 | 791.1 | 797.3
m1 = 0.06172 | 723.4 | 735.9 | 747 | 757.4 | 766.8 | 775.7 | 784 | 791.9 | 798
m1 = 0.1302 | 723.1 | 735.3 | 746.5 | 756.8 | 766.3 | 775.1 | 783.3 | 791.1 | 797.4
m1 = 0.2486 | 723 | 735.1 | 746.2 | 756.4 | 766 | 774.7 | 783 | 790.6 | 797.1
m1 = 0.4969 | 722.6 | 734.6 | 745.4 | 755.6 | 765.2 | 774 | 782.2 | 789.8 | 796.6
m1 = 0.746 | 722 | 733.9 | 744.6 | 754.7 | 764.2 | 772.8 | 780.9 | 788.4 | 795.1
m1 = 0.9972 | 722.7 | 734.3 | 745 | 754.9 | 764.2 | 772.7 | 780.7 | 788.2 | 794.7
m1 = 1.489 | 721 | 732.5 | 742.9 | 752.7 | 762 | 770.4 | 778.3 | 785.7 | 792.3
m1 = 1.99 | 720.7 | 731.9 | 742.1 | 751.7 | 760.8 | 769.1 | 777 | 784.3 | 790.9
m1 = 2.99 | 720.3 | 730.9 | 740.7 | 750 | 759 | 767 | 774.6 | 781.7 | 788.1
m1 = 3.995 | 720.8 | 731.1 | 740.5 | 749.3 | 758 | 765.8 | 773.2 | 780 | 786.3
